Where a name gives a salt, the structure may show the parent alone. Read-outs that look alike come from different tables or passages of the source.
What was measured:
[1] = biological target: T1, noradrenaline (NA) reuptake in synaptosomes (Rattus norvegicus, UniProt Q63380); assay: Inhibition of noradrenaline (NA) reuptake in synaptosomes; type: biochemical; conditions: 3H-NA, read-out: NA-uptake IC50
T1 construct: in synaptosomes as described in WO 97/16451; from tissue
Method: (§1) Compounds were tested for their ability to inhibit the reuptake of the monoamine neurotransmitters dopamine (DA), noradrenaline (NA), and serotonin (5-HT) in synaptosomes as described in WO 97/16451 (NeuroSearch A/S).
(§2) The test values are given as IC50 (the concentration (μM) of the test substance which inhibits the specific binding of ^3H-DA, ^3H-NA, or ^3H-5-HT by 50%).

[2] = biological target: T2, dopamine (DA) reuptake in synaptosomes (Rattus norvegicus, UniProt P23977); assay: Inhibition of dopamine (DA) reuptake in synaptosomes; type: biochemical; conditions: 3H-DA, read-out: DA-uptake IC50
T2 construct: in synaptosomes as described in WO 97/16451; from tissue
Method: as §1, §2

[3] = tested on: female Sprague Daley rats; assay: Laser Doppler measurement of clitoral blood flow in anaesthetized female rats; type: in vivo, rat
Method: (§3) Animals: The experimental setup was run in two different sets of measurement procedures to avoid a variation given by each other. The first set of experiments was run in control female rats, and the second set was run in a depressed model called Flint Sensitive Line (FSL), which shares molecular similarities to major depressive patients.
(§4) Anesthesia and general surgical procedure: The rats were injected intraperitoneally with pentobarbital 50 mg/Kg. After 10 min in dark conditions a pinch of the interdigital area confirmed unresponsive of reflexes and the animal was prepared on a table, where legs were semi-extended by tape to fix the animal. The areas of interest (abdomen-inguinal and neck) were shaved and clean-disinfected with water and ethanol. After each study was completed, the animal was sacrificed by an overdose of pentobarbital, and the Atlanto-occipital joint was severed to guarantee a painless procedure for the animal.
Measurements of clitoral blood flow and genital temperature: A suture Nylon 4-0 with a needle was used to extend the urethra opening and expose the mucosa. […] A calibrated laser Doppler flow probe (VP1T, Moor instruments-UK) was used to measure on the front-side of the clitoris, which was connected to the laser Doppler flow monitor; MOORVMS-LDF2 (Moor instruments-UK). A laser Doppler probe was positioned and fixed to a base and a crocodile clamp in order to avoid any movement. The tip of the calibrated probe was immersed in a water-based gel in the exposed area of the urethra-clitoris (FIG. 1B).
A calibrated laser Doppler flow probe (VP1T, Moor instruments-UK) was used to measure on the front-side of the clitoris, which was connected to the laser Doppler flow monitor; MOORVMS-LDF2 (Moor instruments-UK). […] The infusion protocol was performed in sets of 1 min infusion +4 min of further recording of blood flow changes recorded by the system. Electrical field stimulation of the cavernous nerve to the clitoris was utilized as a positive control as described below.
Measurements of clitoral blood flow following electrical stimulation of the cavernous nerve to the clitoris: Through a lower abdominal incision, the cavernous nerve to clitoris was isolated, and electrical stimulation was performed with a slender bipolar platinum electrode, which was connected to a S48 stimulator (Grass Instrument Co., Boston, MA, U.S.A.). To investigate whether stimulation of the nerve leads to hemodynamic changes in the clitorial tissue, the nerve was stimulated as previously described for male rats, with parameters eliciting the maximum amplitude of response (square wave pulses of 6 Volts, 10 Hz, 1 ms for 30 s), and flow was measured with laser Doppler. Clitoral blood flow was measured via laser Doppler as aforementioned.

[4] = biological target: T2, dopamine (DA) reuptake in synaptosomes; conditions: reported in U.S. Pat. No. 9,133,184 B1; cited from earlier work
depressed FSL rats = assay: Thermographic measurement of genital temperature in female rats; type: in vivo, rat
Method: as §3, §4
A thermographic FLIR camera (E96, InfraTec, Germany, FIG. 1) was positioned at 50 cm distance from the area of interest (FIG. 1C). Three areas (thorax, vagina, and urethral-clitoris) of interest were recorded by digital markers positioned using the Research Studio-FLIR, and data were extracted and imported to Excel.

[5] = biological target: T1, noradrenaline (NA) reuptake in synaptosomes; conditions: reported in U.S. Pat. No. 9,133,184 B1; cited from earlier work
[6] = tested on: Female Sprague Dawley rats; assay: Sexual (paracopulatory) behaviour of estrus-synchronized female rats paired with male rats; type: in vivo, rat
Method: Animals: Female Sprague Dawley rats (12-15 weeks old) were housed in the animal facility in Universal Euro Ill type long width cages with standard wood bedding and space for 2 rats with a clean environment, and a comfortable temperature (22-23° C.) with 12:12 h light-dark cycle starting at 11 am and they had free access to food and tap water.
Synchronization of the sexual cycle in estrus of female rats: Female Sprague Dawley rats with an average weight of 250 g were synchronized in the estrus phase of the sexual cycle by injecting with 250 μg prostaglandin F2α (PGF2α) subcutaneously at day 0 and day 3.
To investigate the sexual behavior, the synchronized female rats were paired with trained male rats and behaviour recorded by two cameras. The videos were quantified by a trained operator blinded for the treatments.
Data analysis and statistics: Statistical differences between vehicle, apomorphine and two different doses of IP2015 were analysed using one-way analysis of variance (ANOVA) followed by Tukey post-test. The assumptions of the models were investigated by inspecting Q-Q plots and data were logarithmically transformed when necessary in order to generate a Gaussian-distributed data set. In case where the data were skewed, the Brown-Forsythe test was applied. The ROUT method (Q=1%) was used to exclude data from the analysis. A P<0.05 was considered statistically significant. Post-tests were only done if F was significant and there was no variance inhomogeneity. All statistical analyses were performed using GraphPad Prism 9.5 software (GraphPad Software, CA, USA).

[7] = tested on: female Sprague Daley rats; assay: Mean arterial pressure and heart rate in anaesthetized female rats; type: in vivo, rat; conditions: infusion 0.3 to 10 mg/kg, versus vehicle
Method: Measurements mean arterial pressure and heart rate: The anaesthetized rats breathed spontaneously and body temperature was monitored continuously, and maintained at 37.5° C. by placing them on a heating blanket. A heparinized (100 IE mL-1) polyethylene (PE) catheter (PE-50) connected to a pressure transducer (Disposable BP Transducer, AD Instruments, UK) was introduced into the carotid artery to measure MAP. Following a stabilization period of 10-20 min, continuous direct measurements of mean arterial pressure (MAP) and heart rate (HR) were obtained, registered, and analysed on a computerized data acquisition system (PowerLab, ADInstruments).

[8] = infusion 0.3 to 10 mg/kg via jugular vein
[9] = infusion 0.3 to 10 mg/kg via jugular vein, laser Doppler
[10] = depressed FSL rats, infusion of increasing doses 0.3-10 mg/Kg, thermography 4x zoom

T1 sequence (Q63380 1-617): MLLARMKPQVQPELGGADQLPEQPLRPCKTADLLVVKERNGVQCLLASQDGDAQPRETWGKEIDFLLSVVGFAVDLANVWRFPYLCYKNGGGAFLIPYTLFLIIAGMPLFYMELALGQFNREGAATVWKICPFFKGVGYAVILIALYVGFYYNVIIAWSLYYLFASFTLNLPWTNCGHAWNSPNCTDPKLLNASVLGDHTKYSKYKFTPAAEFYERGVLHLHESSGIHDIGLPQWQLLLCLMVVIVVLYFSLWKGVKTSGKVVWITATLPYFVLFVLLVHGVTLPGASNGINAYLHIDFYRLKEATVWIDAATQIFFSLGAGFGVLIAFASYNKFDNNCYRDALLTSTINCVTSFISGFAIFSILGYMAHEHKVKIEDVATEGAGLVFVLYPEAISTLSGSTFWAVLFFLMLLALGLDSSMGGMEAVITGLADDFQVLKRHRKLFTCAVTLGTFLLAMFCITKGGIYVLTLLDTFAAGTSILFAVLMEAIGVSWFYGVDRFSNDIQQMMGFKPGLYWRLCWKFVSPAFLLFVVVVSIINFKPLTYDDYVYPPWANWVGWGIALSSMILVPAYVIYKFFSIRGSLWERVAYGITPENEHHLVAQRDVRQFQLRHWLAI
T2 sequence (P23977 whole entry): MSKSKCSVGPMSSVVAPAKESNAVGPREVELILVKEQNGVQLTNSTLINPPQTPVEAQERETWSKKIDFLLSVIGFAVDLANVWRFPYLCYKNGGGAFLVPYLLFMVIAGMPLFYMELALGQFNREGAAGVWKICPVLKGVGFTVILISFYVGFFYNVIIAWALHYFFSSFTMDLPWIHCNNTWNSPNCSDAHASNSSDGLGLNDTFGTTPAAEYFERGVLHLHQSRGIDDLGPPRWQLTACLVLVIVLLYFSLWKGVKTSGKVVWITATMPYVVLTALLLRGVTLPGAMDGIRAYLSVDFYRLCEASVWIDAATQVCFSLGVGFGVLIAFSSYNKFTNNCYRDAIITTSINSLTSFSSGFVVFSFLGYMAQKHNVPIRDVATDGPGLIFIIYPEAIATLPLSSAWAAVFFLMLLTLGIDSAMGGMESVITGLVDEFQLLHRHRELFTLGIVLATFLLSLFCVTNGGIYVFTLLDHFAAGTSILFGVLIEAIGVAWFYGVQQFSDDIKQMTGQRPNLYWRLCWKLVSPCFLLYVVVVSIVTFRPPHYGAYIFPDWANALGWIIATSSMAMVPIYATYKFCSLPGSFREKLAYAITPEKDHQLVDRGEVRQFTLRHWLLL

Compound | IC50 [1] [µM] | IC50 [2] [µM] | average clitoral blood flow compared to vehicle [3, 8] | peak clitoral blood flow compared to vehicle [3, 8] | duration of blood flow in the clitoral area [3, 9] | frequency of blood flow in the clitoral area [3, 9] | magnitude of blood flow in the clitoral area [3, 9] | Peak clitoral blood flow following infusion ([3]; laser Doppler trace, electrical stimulation of cavernous nerve gave 4.31 V) [V] | IC50 [4] [µM] | temperature in the clitoral area (depressed FSL rats; [10]) | temperature in the vagina (depressed FSL rats; [10]) | core temperature (anal thermometer) (depressed FSL rats; during infusion of IP2015) | IC50 [5] [µM] | number of hops compared to apomorphine ([6]; 10 mg/kg) | darts compared with vehicle and apomorphine ([6]; 1 and 10 mg/kg) | ear wiggling ([6]; single injection, 1 and 10 mg/kg) | heart rate (HR) [7] | mean arterial pressure (MAP) [7] | paracopulatory parameters (hops, ear wiggling, darts) ([6]; 0.25 mg/kg)
COc1cc2ccc(O[C@@H]3C[C@H]4CC[C@@H](C3)N4)cc2oc1=O [IP2015, exo-7-[(8-azabicyclo[3.2.1]octan-3-yl)oxy]-3-methoxy-chromen-2-one hydrochloride] | 0.0038 | 0.07 | significantly increased | significantly increased | increased | increased | increased | 4.49 | 0.07 | dose-dependent increases | dose-dependent increases | unchanged | 0.0038 | increased | dose-dependently increased | did not change | significantly increased | comparable to vehicle | 
CN1CCc2cccc3c2[C@H]1Cc1ccc(O)c(O)c1-3 [apomorphine, reference compound] |  |  |  |  |  |  |  |  |  |  |  |  |  |  |  |  |  |  | did not change

Reference: patent US20260263443A1, “COMPOUND FOR TREATMENT OF FEMALE SEXUAL DYSFUNCTION” (Initiator Pharma A/S, priority 2022, published 2026)
